Test results taken from PMC10675604, “Cetirizine and Levetiracetam as Inhibitors of Monoacylglycerol Lipase: Investigating Their Repurposing Potential as Novel Osteoarthritic Pain Therapies” (Pharmaceuticals, 2023).

Target: T1, monoacylglycerol lipase (MAGL) (Homo sapiens, UniProt Q99685)
T1 construct: gene MGLL
T1 sequence (Q99685 1-303): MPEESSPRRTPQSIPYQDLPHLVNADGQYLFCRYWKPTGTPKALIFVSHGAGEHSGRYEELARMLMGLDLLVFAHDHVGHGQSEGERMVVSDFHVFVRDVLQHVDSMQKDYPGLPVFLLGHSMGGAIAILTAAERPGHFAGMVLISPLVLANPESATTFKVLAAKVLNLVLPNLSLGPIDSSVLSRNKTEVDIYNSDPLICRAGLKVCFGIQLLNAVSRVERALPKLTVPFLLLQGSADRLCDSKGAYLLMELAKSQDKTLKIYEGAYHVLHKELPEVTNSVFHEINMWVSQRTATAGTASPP
Experiment: colorimetric MAGL inhibition assay (Cayman kit […], 4-nitrophenyl acetate hydrolysis, […] nm)
Format: biochemical

Row | Compound | IC50 [µM]
1 | CC[C@@H](C(N)=O)N1CCCC1=O [levetiracetam] | 3.01
2 | O=C(O)COCCN1CCN(C(c2ccccc2)c2ccc(Cl)cc2)CC1 (centres unmarked) [cetirizine] | 9.39
